# Reference: patent US11242361B2 (Proteostasis Therapeutics, Inc., priority 2013, dated 2022)
# Biological target: USP14 (Homo sapiens (Human), UniProt P54578)
# Test: USP14 Inhibition Assay
# Type: biochemical
# Settings: average value from a minimum of two experimental determinations, read-out: IC50 Category
# Description: Example 17: USP14 Inhibition Assay
# “I” in the Table below designates an IC50 of >5 μM, “II” in the Table below designates and IC50 between 0.5 and 5 μM, and “III” designates an IC50<0.5 μM. The IC50 values in the Table below represent the average value from a minimum of two experimental determinations.
# USP14, sequence (P54578 whole entry, looked up): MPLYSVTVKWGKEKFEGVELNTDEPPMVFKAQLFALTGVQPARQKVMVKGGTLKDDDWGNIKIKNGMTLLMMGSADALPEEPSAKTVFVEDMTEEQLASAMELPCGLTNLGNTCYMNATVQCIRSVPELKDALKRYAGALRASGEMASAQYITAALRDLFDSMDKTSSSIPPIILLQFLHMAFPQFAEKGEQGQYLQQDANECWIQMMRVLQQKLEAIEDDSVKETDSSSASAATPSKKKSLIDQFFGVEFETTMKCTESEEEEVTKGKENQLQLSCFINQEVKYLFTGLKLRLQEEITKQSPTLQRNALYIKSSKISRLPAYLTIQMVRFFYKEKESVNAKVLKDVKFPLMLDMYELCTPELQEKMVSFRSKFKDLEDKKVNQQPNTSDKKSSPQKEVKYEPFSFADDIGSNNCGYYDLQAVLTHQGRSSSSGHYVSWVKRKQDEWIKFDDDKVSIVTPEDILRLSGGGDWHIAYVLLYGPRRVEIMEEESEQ
row,IC50 [nM],Structure (SMILES)
1,500 to 5000,"Cc1c(C(=O)CN2CCCCC2)c2cccnc2n1-c1ccc(C#N)cc1 [Compound 141, 4-(2-Methyl-3-(2-(piperidin-1-yl)acetyl)-1H-pyrrolo[2,3-b]pyridin-1-yl)benzonitrile]"
2,500 to 5000,Cc1c(C(=O)CN2CCC(NC(=O)OC(C)(C)C)CC2)c2ccccc2n1-c1ccc(Cl)cc1 [Compound 142]
3,500 to 5000,"Cc1c(C(=O)CN2CCCCC2)c2ccncc2n1-c1ccc(C#N)cc1 [Compound 144, 4-(2-Methyl-3-(2-(piperidin-1-yl)acetyl)-1H-pyrrolo[2,3-c]pyridin-1-yl)benzonitrile]"
4,500 to 5000,Cc1c(C(=O)CN2CCCCC2)c2cc(Oc3ccccc3)ccc2n1-c1ccc(Cl)cc1 [Compound 145]
5,500 to 5000,COc1cccc2c(C(=O)CN3CCCCC3)c(C)n(-c3ccc(C#N)cc3)c12 [Compound 146]
6,500 to 5000,Cc1c(C(=O)CN2CCC(NC(=O)c3ccc(N=[N+]=[N-])cc3)CC2)c2ccccc2n1-c1ccc(Cl)cc1 [Compound 147]
7,500 to 5000,"Cc1c(C(=O)CN2CCCCC2)c2ccc(O)cc2n1-c1ccc(Cl)cc1 [Compound 148, 1-(1-(4-Chlorophenyl)-6-hydroxy-2-methyl-1H-indol-3-yl)-2-(piperidin-1-yl)ethan-1-one]"
8,500 to 5000,Cc1c(C(=O)CN2CCCCC2)c2ncccc2n1-c1ccc(Cl)nc1 [Compound 149]
9,500 to 5000,Cc1c(C(=O)CN2CCCCC2)c2cc([N+](=O)[O-])ccc2n1-c1ccc(Cl)cc1 [Compound 150]
10,500 to 5000,"Cc1c(C(=O)CN2CCCCC2)c2cnccc2n1-c1ccc(C#N)cc1 [Compound 151, 4-(2-Methyl-3-(2-(piperidin-1-yl)acetyl)-1H-pyrrolo[3,2-c]pyridin-1-yl)benzonitrile]"
11,500 to 5000,"Cc1c(C(=O)CN2CCCCC2)c2ccc(CN3C(=O)c4ccccc4C3=O)cc2n1-c1ccc(Cl)cc1 [Compound 152, 2-((1-(4-Chlorophenyl)-2-methyl-3-(2-(piperidin-1-yl)acetyl)-1H-indol-6-yl)methyl)isoindoline-1,3-dione]"
12,< 500,Cc1ccc2c(c1)c(C(=O)CN1CCCCC1)c(C)n2-c1ccc(Cl)cc1 [Compound 156]
13,< 500,Cc1c(C(=O)CN2CCCCC2)c2ncccc2n1-c1ccc(Cl)cc1 [Compound 161]
14,< 500,"Cc1c(C(=O)CN2CCCCC2)c2ncccc2n1-c1ccc(C#N)cc1 [Compound 162, 4-(2-Methyl-3-(2-(piperidin-1-yl)acetyl)-1H-pyrrolo[3,2-b]pyridin-1-yl)benzonitrile]"
15,< 500,Cc1c(C(=O)CN2CCCCC2)c2cc(C#N)ccc2n1-c1ccc(C#N)cc1 [Compound 163]
16,< 500,Cc1c(C(=O)CN2CCCCC2)c2ccccc2n1-c1ccc([N+](=O)[O-])cc1 [Compound 164]
17,< 500,Cc1c(C(=O)CN2CCCCC2)c2nc(F)ccc2n1-c1ccc(C#N)cc1 [Compound 165]
18,< 500,COc1cccc2c1c(C(=O)CN1CCCCC1)c(C)n2-c1ccc(C#N)cc1 [Compound 167]
19,< 500,Cc1c(C(=O)CN2CCCCC2)c2c(F)cccc2n1-c1ccc(C#N)cc1 [Compound 168]
20,< 500,"Cc1ccc2c(C(=O)CN3CCCCC3)c(C)n(-c3ccc(C#N)cc3)c2c1 [Compound 169, 4-(2,6-Dimethyl-3-(2-(piperidin-1-yl)acetyl)-1H-indol-1-yl)benzonitrile]"
21,< 500,Cc1c(C(=O)CN2CCCCC2)c2cccc(F)c2n1-c1ccc(C#N)cc1 [Compound 170]
22,< 500,COC(=O)c1ccc2c(C(=O)CN3CCCCC3)c(C)n(-c3ccc(Cl)cc3)c2c1 [Compound 171]
23,< 500,"CC(=O)Oc1ccc2c(C(=O)CN3CCCCC3)c(C)n(-c3ccc(Cl)cc3)c2c1 [Compound 172, 1-(4-Chlorophenyl)-2-methyl-3-(2-(piperidin-1-yl)acetyl)-1H-indol-6-yl Acetate]"
24,< 500,Cc1c(C(=O)CN2CCCCC2)c2nc(F)ccc2n1-c1ccc(Cl)cc1 [Compound 173]
25,< 500,Cc1c(C(=O)CN2CCCCC2)c2ccc(C#N)cc2n1-c1ccc(C#N)cc1 [Compound 175]

row,IC50 [nM],Structure (SMILES)
1,< 500,Cc1c(C(=O)CN2CCCCC2)c2ccc(F)cc2n1-c1ccc(C#N)cc1 [Compound 176]
2,< 500,"COc1ccc2c(n1)c(C(=O)CN1CCCCC1)c(C)n2-c1ccc(C#N)cc1 [Compound 177, 4-(5-Methoxy-2-methyl-3-(2-(piperidin-1-yl)acetyl)-1H-pyrrolo[3,2-b]pyridin-1-yl)benzonitrile]"
3,< 500,"Cc1c(C(=O)CN2CCCCC2)c2ccc(OCC(N)=O)cc2n1-c1ccc(Cl)cc1 [Compound 179, 2-((1-(4-Chlorophenyl)-2-methyl-3-(2-(piperidin-1-yl)acetyl)-1H-indol-6-yl)oxy)acetamide]"
4,< 500,"Cc1c(C(=O)CN2CCCCC2)c2ccc(C(C)C)cc2n1-c1ccc(C#N)cc1 [Compound 180, 4-(6-Isopropyl-2-methyl-3-(2-(piperidin-1-yl)acetyl)-1H-indol-1-yl)benzonitrile]"
5,< 500,"Cc1c(C(=O)CN2CCCCC2)c2ncccc2n1-c1ccc(C#N)nc1 [Compound 181, 5-(2-Methyl-3-(2-(piperidin-1-yl)acetyl)-1H-pyrrolo[3,2-b]pyridin-1-yl)picolinonitrile]"
6,< 500,"Cc1c(C(=O)CN2CCCCC2)c2ccc(CO)cc2n1-c1ccc(Cl)cc1 [Compound 182, 1-(1-(4-Chlorophenyl)-6-(hydroxymethyl)-2-methyl-1H-indol-3-yl)-2-(piperidin-1-yl)ethan-1-one]"
7,< 500,"CC(=O)NCc1ccc2c(c1)c(C(=O)CN1CCCCC1)c(C)n2-c1ccc(C#N)cc1 [Compound 183, N-((1-(4-Cyanophenyl)-2-methyl-3-(2-(piperidin-1-yl)acetyl)-1H-indol-5-yl)methyl)acetamide]"
8,< 500,"Cc1cnc2c(C(=O)CN3CCCCC3)c(C)n(-c3ccc(C#N)cc3)c2c1 [Compound 184, 4-(2,6-Dimethyl-3-(2-(piperidin-1-yl)acetyl)-1H-pyrrolo[3,2-b]pyridin-1-yl)benzonitrile]"
9,< 500,"Cc1c(C(=O)CN2CCCCC2)c2ccc(CN)cc2n1-c1ccc(Cl)cc1 [Compound 185, 1-(6-(Aminomethyl)-1-(4-chlorophenyl)-2-methyl-1H-indol-3-yl)-2-(piperidin-1-yl)ethan-1-one]"
10,< 500,"Cc1c(C(=O)CN2CCCCC2)c2cc(N)ccc2n1-c1ccc(C#N)cc1 [Compound 186, 4-(5-Amino-2-methyl-3-(2-(piperidin-1-yl)acetyl)-1H-indol-1-yl)benzonitrile]"
11,< 500,"Cc1c(C(=O)CN2CCCCC2)c2cc(NC(=O)C(C)(C)C)ccc2n1-c1ccc(C#N)cc1 [Compound 187, N-(1-(4-Cyanophenyl)-2-methyl-3-(2-(piperidin-1-yl)acetyl)-1H-indol-5-yl)pivalamide]"
12,< 500,"Cc1c(C(=O)CN2CCCCC2)c2ccc(CN(C)C)cc2n1-c1ccc(Cl)cc1 [Compound 188, 1-(1-(4-chlorophenyl)-6-((Dimethylamino)methyl)-2-methyl-1H-indol-3-yl)-2-(piperidin-1-yl)ethan-1-one]"
13,< 500,Cc1cnc2c(C(=O)CN3CCCC(F)C3)c(C)n(-c3ccc(C#N)cc3)c2c1 (stereo not shown) [Compound 189]
14,< 500,Cc1cnc2c(C(=O)CN3CCC(F)CC3)c(C)n(-c3ccc(C#N)cc3)c2c1 [Compound 190]
15,< 500,"CC(=O)Nc1ccc2c(c1)c(C(=O)CN1CCCCC1)c(C)n2-c1ccc(C#N)cc1 [Compound 191, N-(1-(4-Cyanophenyl)-2-methyl-3-(2-(piperidin-1-yl)acetyl)-1H-indol-5-yl)acetamide]"
16,> 5000,CN(C)c1c(C(=O)CN2CCCCC2)c2ccccc2n1-c1ccc(Cl)cc1 [Compound 192]
17,500 to 5000,COc1cc2c(C(=O)CN3CCCCC3)c(C)n(-c3ccc(C#N)cc3)c2cc1OC(F)(F)F [Compound 193]
18,< 500,"Cc1c(C(=O)CN2CCCCC2)c2ccc(CCC(N)=O)cc2n1-c1ccc(C#N)cc1 [Compound 194, 3-(1-(4-Cyanophenyl)-2-methyl-3-(2-(piperidin-1-yl)acetyl)-1H-indol-6-yl)propanamide]"
19,< 500,Cc1cc2c(nc1C)c(C(=O)CN1CCCCC1)c(C)n2-c1ccc(C#N)cc1 [Compound 195]
20,< 500,"CC(=O)N(C)c1ccc2c(c1)c(C(=O)CN1CCCCC1)c(C)n2-c1ccc(C#N)cc1 [Compound 196, N-(1-(4-Cyanophenyl)-2-methyl-3-(2-(piperidin-1-yl)acetyl)-1H-indol-5-yl)-N-methylacetamide]"
21,< 500,CCOC(=O)Cc1ccc2c(C(=O)CN3CCCCC3)c(C)n(-c3ccc(C#N)cc3)c2c1 [Compound 197]
22,< 500,"Cc1c(C(=O)CN2CCCCC2)c2ccc(CC(=O)O)cc2n1-c1ccc(C#N)cc1 [Compound 198, 2-(1-(4-Cyanophenyl)-2-methyl-3-(2-(piperidin-1-yl)acetyl)-1H-indol-6-yl)acetic Acid]"
23,< 500,"CNc1ccc2c(c1)c(C(=O)CN1CCCCC1)c(C)n2-c1ccc(C#N)cc1 [Compound 199, 4-(2-Methyl-5-(methylamino)-3-(2-(piperidin-1-yl)acetyl)-1H-indol-1-yl)benzonitrile]"
24,< 500,"CCOC(=O)CCc1cc2c(nc1C)c(C(=O)CN1CCCCC1)c(C)n2-c1ccc(C#N)cc1 [Compound 200, Ethyl 3-(1-(4-Cyanophenyl)-2,5-dimethyl-3-(2-(piperidin-1-yl)acetyl)-1H-pyrrolo[3,2-b]pyridin-6-yl)propanoate]"

row,Structure (SMILES),IC50 [nM]
1,"Cc1c(C(=O)CN2CCCCC2)c2ccc(CO[Si](C)(C)C(C)(C)C)cc2n1-c1ccc(Cl)cc1 [Compound 153, 1-(6-(((tert-Butyldimethylsilyl)oxy)methyl)-1-(4-chlorophenyl)-2-methyl-1H-indol-3-yl)-2-(piperidin-1-yl)ethan-1-one]",500 to 5000
2,COc1ccc2c(c1)c(C(=O)CN1CCCCC1)c(C)n2-c1ccc(Cl)cc1 [Compound 155],< 500
3,COc1ccc2c(C(=O)CN3CCCCC3)c(C)n(-c3ccc(Cl)cc3)c2c1 [Compound 178],< 500
